Laboratory results: patent US12061186B2, “Compositions and methods for using cross-dressing to enhance anti-tumor immune responses” (Massachusetts Institute of Technology, priority 2020, dated 2024)

Tested on: MC38-SIY tumor cells
Test: IFNγ-ELISpot of splenocytes from mice implanted with PRR agonist-coated tumor cells
Assay type: in vivo
Experimental: Tumor cell lines were cultured at 37° C. and 5% CO2 in DMEM (Gibco) supplemented with 10% FBS (Atlanta Biologicals), 1% penicillin/streptomycin (Gibco), and 1×HEPES (Gibco). Tumor cells were harvested by trypsinization (Gibco) and washed 3 times with PBS (Gibco). Cells were resuspended in PBS, and 2×10^6 tumor cells were injected subcutaneously into the flanks of mice. For experiments with pattern recognition receptor (PRR) agonist coating, 2×10^6 tumor cells were resuspended with 50 μg naked Poly(I:C) HMW (InvivoGen), DMXAA (InvivoGen), or Pam2CSK4 (InvivoGen) in PBS and injected subcutaneously into the flanks of mice. All PRR agonists were added to cells without a transfection reagent. For experiments with fixed tumor cells, the cells were fixed with 4% paraformaldehyde (Electron Microscopy Sciences) for 10 minutes at RT, washed twice and resuspended with PBS, and 2×10^6 tumor cells were injected subcutaneously into the flanks of mice. Tumor area measurements (calculated as length×width) were collected 2-3 times a week until the endpoint of the study. Data not shown but available upon request—Details on experimental cohorts, the raw data, as well as the power calculations for all tumor outgrowth experiments.
ELISpot plates (EMD Millipore) were coated overnight at 4° C. with anti-IFNγ (BD Biosciences). Plates were washed and blocked with DMEM supplemented with 10% FBS, 1% penicillin/streptomycin, and 1×HEPES for 2 hours at room temperature (RT). Spleens were harvested from mice at day 5 or day 7 post-tumor inoculation and mashed through a 70 μm filter with a 1 mL syringe plunger to generate a single cell suspension. Red blood cells were lysed with 500 μL of ACK Lysing Buffer (Gibco) on ice for 2 minutes. Splenocytes were washed 3 times with chilled PBS and 1×10^6 cells were assayed per well in the presence or absence of 160 nM SIY peptide or 100 ng/mL PMA (Sigma-Aldrich) and 1 μg/mL ionomycin (Sigma-Aldrich) as a positive control. Plates were developed the next day using the BD mouse IFNγ-ELISpot kit, following manufacturer's protocol.

polyinosinic-polycytidylic acid [Poly(I:C)]
induction of antigen-specific T cell responses (IFNγ-ELISpot) (Poly(I:C)-coated 4% PFA-fixed MC38-SIY tumor cells): failed to induce any antigen-specific T cell responses
antigen-specific T cell responses restored, as share of the priming responses observed in WT mice (IFNγ-ELISpot) (Poly(I:C)-coated MC38-SIY tumor cells implanted in Batf3−/− mice, day 7 post-tumor inoculation, 50 μg per 2×10^6 cells): 45.0%
restoration of T cell responses (IFNγ-ELISpot) (Poly(I:C)-coated MHC class I-deficient (β2M−/−) MC38-SIY tumor cells, Batf3−/− mice): no restoration
